Each structure is given as a SMILES string. Read-outs that look alike come from different tables or passages of the source.

5 compounds from patent US11504370B2, “Treatment of brain cancer” (Array BioPharma Inc., priority 2012, dated 2022) can be followed below.

Data set [1] is described as follows: Physicochemical analysis: hygroscopicity.
Data set [2] is described as follows: Brain pharmacokinetic (PK) study in mice. The class given is in vivo. The following applies: for Kp at 1 h / Kp at 2 h / Kp at 4 h / concentration at 1 h / concentration at 2 h / concentration at 4 h / concentration at 0.5 h / Kp at 0.5 h: mouse; for Kp at 1 h / Kp at 2 h / Kp at 4 h / Kp at 0.5 h: brain / plasma, ARRY-380 75 mg/kg, read-out: brain:plasma ratio. The protocol:
The mice were separated into groups and their PK was studied at 4 time points (0.5, 1, 2 and 4 hours, 4 mice per group per timepoint). The animals were euthanized by CO2 inhalation at the time points. Whole blood was drawn (300 μL) by cardiac puncture and […] eppendorf tube containing ethylenediaminetetraacetic acid (“EDTA”) ([…]). The samples were centrifuged, and the plasma was decanted and frozen at -20° C. until delivered to analytical chemistry. The brains were collected. The animals were perfused with 5-10 mL of saline, and the brains were removed, weighed and placed into a fast prep tube for DMPK analysis.

Data set [3] relates to NCI-N87 gastric carcinoma cells. Kind of data set: Anti-tumor efficacy on N87 human gastric cancer in murine xenograft model (subcutaneous). The data set is classed as in vivo, mice. The following applies: subcutaneous NCI-N87, N=8. The protocol:
Nude nu/nu female mice (NCI, Bethesda, Md.) were split into five groups (N=8). Tumor cells (NCI-N87 gastric carcinoma cells, NCI, Bethesda, Md. 1×10^7) were implanted into the mice via subcutaneous injection (100 μL) directly on the right flank. To ensure good tumor take, the cells should be greater than 90% viable (thus, the intitial cell suspension of 1×10^7 cells/mL were injected for 1×10^6 cells injected/100 The tumors were allowed to grow to 150±50 mm^3. The tumor size was measured, and the mice were weighed. The mice were administered vehicle (30% Captisol®, 150 g in 500 mL DI water, PO, BID), lapatanib (50 mg/kg, PO, BID, 30% Captisol®), lapatanib (100 mg/kg, PO, BID, 30% Captisol®), N4-(4-([1,2,4]triazolo[1,5-a]pyridin-7-yloxy)-3-methylphenyl)-N6-(4,4-dimethyl-4,5-dihydrooxazol-2-yl)quinazoline-4,6-diamine (50 mg/kg, PO, QD, 30% Captisol) and N4-(4-([1,2,4]triazolo[1,5-a]pyridin-7-yloxy)-3-methylphenyl)-N6-(4,4-dimethyl-4,5-dihydrooxazol-2-yl)quinazoline-4,6-diamine (100 mg/kg, PO, QD, 30% Captisol). The tumor volume was measured. The number of partial responses in the mice was as follows: lapatanib (50 mg/kg) 0, lapatanib (100 mg/kg) 1, ARRY-380 (50 mg/kg) 1, ARRY-380 (100 mg/kg) 4.
For orientation: In xenograft studies the graft and the host belong to different species.

Data set [4] is described as follows: Dissolution testing at pH 6.5 in phosphate buffer. The class given is physicochemical. Particulars: pH 6.5 phosphate buffer, 37° C., about 240 minutes. The method, then: Dissolution testing was performed at a pH of 6.5 in phosphate buffer. […] The solid dispersion was suspended in H2O and added directly to the buffer solution at 37° C. […]

In data set [5] the test system is NCI-N87 gastric carcinoma cells. Kind of data set: Inhibition of NCI-N87 gastric carcinoma xenograft growth in mice implanted intracranially. The data set is classed as in vivo. The following applies: 75 mg/kg PO BID; intracranial NCI-N87, nude BALB/c mice; FIG. 3. The method, then:
Anesthetized nude BALB/c female mice (Taconic Laboritories Inc., Germantown, N.Y.) were inoculated with human tumor cells (NCI-N87 gastric carcinoma cells, NCI, Bethesda, Md.) intracranially at lamba suture. 5×10^5 cells in saline were implanted via intracranial injection. The mice were separated into three groups (N=12); vehicle (acidified 30% Captisol®, pH about 4.5), 50 mg/kg lapatanib PO BID (30% Captisol®), and 75 mg/kg N4-(4-([1,2,4]triazolo[1,5-a]pyridin-7-yloxy)-3-methylphenyl)-N6-(4,4-dimethyl-4,5-dihydrooxazol-2-yl)quinazoline-4,6-diamine PO BID (acidified 30% Captisol®, pH about 4.5). Dosing began two days after implantation. The dose may have been reduced as necessary if drug-related weight loss (approximately 5%) was observed. The mice were monitored twice daily for general health and behavioral/neurological effects, and body weights (BW) were determined twice weekly. At first sign of neurological problem or body weight loss of greater than 20%, the mice were euthanized by CO2 inhalation. Brain and plasma were collected for analyses.

[6] abbreviates: female, nude BALB/c, 1 hour, single PO dose, lapatanib 50 mg/kg.
Setting [7] is: female, nude BALB/c, 2 hour, single PO dose, lapatanib 50 mg/kg.
[8] abbreviates: female, nude BALB/c, 4 hour, single PO dose, lapatanib 50 mg/kg.
The mark [9] stands for this setting: female, nude BALB/c, 1 hour, single PO dose, lapatanib 50 mg/kg, ARRY-380 75 mg/kg (AR00440993 = metabolite), perfused brain, read-out: Average Brain Concentration.
The mark [10] stands for this setting: female, nude BALB/c, 2 hour, single PO dose, lapatanib 50 mg/kg, ARRY-380 75 mg/kg (AR00440993 = metabolite), perfused brain, read-out: Average Brain Concentration.
[11] abbreviates: female, nude BALB/c, 4 hour, single PO dose, lapatanib 50 mg/kg, ARRY-380 75 mg/kg (AR00440993 = metabolite), perfused brain, read-out: Average Brain Concentration.
[12] abbreviates: 0.5 hour, single PO dose, lapatanib 50 mg/kg, ARRY-380 75 mg/kg (AR00440993 = metabolite of ARRY-380), nude female BALB/c mice.
The mark [13] stands for this setting: 1 hour, single PO dose, lapatanib 50 mg/kg, ARRY-380 75 mg/kg (AR00440993 = metabolite of ARRY-380), nude female BALB/c mice.
The mark [14] stands for this setting: 2 hour, single PO dose, lapatanib 50 mg/kg, ARRY-380 75 mg/kg (AR00440993 = metabolite of ARRY-380), nude female BALB/c mice.
The mark [15] stands for this setting: 4 hour, single PO dose, lapatanib 50 mg/kg, ARRY-380 75 mg/kg (AR00440993 = metabolite of ARRY-380), nude female BALB/c mice.
Where [16] appears, read: female, nude BALB/c, 0.5 hour, single PO dose, lapatanib 50 mg/kg.
Where [17] appears, read: female, nude BALB/c, 0.5 hour, single PO dose, lapatanib 50 mg/kg, ARRY-380 75 mg/kg (AR00440993 = metabolite), perfused brain, read-out: Average Brain Concentration.
[18] abbreviates: 50 mg/kg PO (lapatanib BID, ARRY-380 QD).
[19] abbreviates: 100 mg/kg PO (lapatanib BID, ARRY-380 QD).

As to `Cc1cc(Nc2ncnc3ccc(NC4=NC(C)(C)CO4)cc23)ccc1Oc1ccn2ncnc2c1` [REF], the “Hygroscopicity (% wt change at 80% RH)” value in data set [1] was below 1% wt change at 80% RH.
Regarding `Cc1cc(Nc2ncnc3ccc(NC4=NC(C)(CO)CO4)cc23)ccc1Oc1ccn2ncnc2c1` (centres unmarked) [AR00440993, (2-((4-((4-([1,2,4]triazolo[1,5-a]pyridin-7-yloxy)-3-methylphenyl)amino)quinazolin-6-yl)amino)-4-methyl-4,5-dihydrooxazol-4-yl)methanol], the “Average Brain Concentration” value in data set [2] (0.5 hour, single PO dose, lapatanib 50 mg/kg, ARRY-380 75 mg/kg (AR00440993 = metabolite), perfused brain) is listed as “BLQ”. The brain penetration result in data set [2] (compared with lapatanib or ARRY-380, mice, after PO ARRY-380) is “significantly higher”. For the same compound, the Kp at 1 h in data set [2] (setting [6]) turned out to be 2.08. Moreover, the Kp at 2 h in data set [2] (setting [7]) turned out to be 0.48. Besides, the Kp at 4 h in data set [2] (setting [8]) worked out at 1.31. Besides, the concentration at 1 h in data set [2] (setting [9]) is 28.9 ng/g; in data set [2] (plasma, 1 hour, single PO dose, lapatanib 50 mg/kg, ARRY-380 75 mg/kg (AR00440993 = metabolite of ARRY-380), nude female BALB/c mice, read-out: Average Plasma Concentration), 67.3 µg/mL. For the same compound, the concentration at 2 h in data set [2] (setting [10]) stood at 35.8 ng/g; in data set [2] (plasma, 2 hour, single PO dose, lapatanib 50 mg/kg, ARRY-380 75 mg/kg (AR00440993 = metabolite of ARRY-380), nude female BALB/c mice, read-out: Average Plasma Concentration), 134 µg/mL. Besides, the concentration at 4 h turned out to be 40 ng/g in data set [2] (setting [11]) and 70.4 µg/mL in data set [2] (plasma, 4 hour, single PO dose, lapatanib 50 mg/kg, ARRY-380 75 mg/kg (AR00440993 = metabolite of ARRY-380), nude female BALB/c mice, read-out: Average Plasma Concentration). Further, the concentration at 0.5 h in data set [2] (plasma, 0.5 hour, single PO dose, lapatanib 50 mg/kg, ARRY-380 75 mg/kg (AR00440993 = metabolite of ARRY-380), nude female BALB/c mice, read-out: Average Plasma Concentration) came out at 20.2 µg/mL.
For `CS(=O)(=O)CCNCc1ccc(-c2ccc3ncnc(Nc4ccc(OCc5cccc(F)c5)c(Cl)c4)c3c2)o1` [Lapatanib, lapatinib, reference compound], the Average Plasma Concentration was 1910 ng/mL in data set [2] (setting [12]), 4310 ng/mL in data set [2] (setting [13]), 1740 ng/mL in data set [2] (setting [14]) and 1940 ng/mL in data set [2] (setting [15]). The Kp at 0.5 h in data set [2] (setting [16]) came to 0.026. In addition, the Kp at 1 h in data set [2] (setting [6]) stood at 0.022. The Kp at 2 h in data set [2] (setting [7]) worked out at 0.039. Also, the Kp at 4 h in data set [2] (setting [8]) came out at 0.038. The concentration at 0.5 h in data set [2] (setting [17]) was 44.9 ng/g. Also, the concentration at 1 h in data set [2] (setting [9]) was 90.8 ng/g. In addition, the concentration at 2 h in data set [2] (setting [10]) was 57.4 ng/g. Also, the concentration at 4 h in data set [2] (setting [11]) came to 65.4 ng/g. Also, the figures for the “number of partial responses in the mice” value in data set [3] (setting [18]) and in data set [3] (setting [19]) were 0 and 1, respectively.
For `CCO.Cc1cc(Nc2ncnc3ccc(NC4=NC(C)(C)CO4)cc23)ccc1Oc1ccn2ncnc2c1.Cc1cc(Nc2ncnc3ccc(NC4=NC(C)(C)CO4)cc23)ccc1Oc1ccn2ncnc2c1` [Example 21, N4-(4-([1,2,4]triazolo[1,5-a]pyridin-7-yloxy)-3-methylphenyl)-N6-(4,4-dimethyl-4,5-dihydrooxazol-2-yl)quinazoline-4,6-diamine freebase hemi-ethanolate], in data set [4], the “AUC for the free drug species” value was found to be 5490 ng·h/mL and the “Cmax for the free drug species” value was determined as 0.44 µg/mL.
`Cc1cc(Nc2ncnc3ccc(NC4=NC(C)(C)CO4)cc23)ccc1Oc1ccn2ncnc2c1` [ARRY-380, N4-(4-([1,2,4]Triazolo[1,5-a]pyridin-7-yloxy)-3-methylphenyl)-N6-(4,4-dimethyl-4,5-dihydrooxazol-2-yl)quinazoline-4,6-diamine]: the Average Plasma Concentration came out at 3350 ng/mL in data set [2] (setting [12]), 6420 ng/mL in data set [2] (setting [13]), 6010 ng/mL in data set [2] (setting [14]) and 2640 ng/mL in data set [2] (setting [15]). Moreover, in data set [2] (setting [16]), the Kp at 0.5 h came to 0.048. Besides, in data set [2] (setting [6]), the Kp at 1 h amounted to 0.048. The Kp at 2 h in data set [2] (setting [7]) was 0.021. For the same compound, the Kp at 4 h in data set [2] (setting [8]) turned out to be 0.019. Besides, the concentration at 0.5 h in data set [2] (setting [17]) is 122 ng/g. In addition, the concentration at 1 h in data set [2] (setting [9]) turned out to be 116 ng/g. Moreover, the concentration at 2 h in data set [2] (setting [10]) was found to be 134 ng/g. Also, in data set [2] (setting [11]), the concentration at 4 h amounted to 42.1 ng/g. Besides, in data set [5], the “phospho-ErbB2/total ErbB2 in the brain” value was “significantly decreases”. For the same compound, the “number of partial responses in the mice” value was 1 in data set [3] (setting [18]) and 4 in data set [3] (setting [19]).
